# From patent US20090221522A1, “METHODS TO CORRECT GENE SET EXPRESSION PROFILES TO DRUG SENSITIVITY” (The Johns Hopkins University, priority 2008, published 2009)
# Tested on: direct pancreatic cancer xenografts (fine needle aspiration cells)
# Assay: Ex vivo perturbability assay, low-density microarray RT-PCR
# Type: cell-based
# Set-up: key to RRM1 gene expression / NFKB1 gene expression / BNIP3L gene expression / VHL gene expression / DCK gene expression / HIF1B gene expression / IGF1R gene expression / MAPK1 gene expression / MAP2K2 gene expression / JUN gene expression / IHH gene expression: % of untreated control (treated sample normalized to untreated)
# Settings: treated normalized to untreated control
# Excerpt: Direct pancreatic cancer derived xenografts: Resected pancreatic adenocarcinomas are routinely implanted in nude mice at the Johns Hopkins Medical Institutions as a method to obtain enriched populations of neoplastic cells under an IRB-approved protocol from residual pancreatic cancer tumors. Tumor specimens from Whipple resection specimens were divided into 2-3 mm^3 pieces in antibiotic-containing RPMI media. Pieces of non-necrotic tissue were selected and immersed in Matrigel. Under anesthesia with isofluorane, tumors were implanted into five-to-six week-old female athymic (nu/nu) mice purchased from Harlan (Harlan Laboratories, Washington, D.C.). This research protocol was approved by the Johns Hopkins University Animal Use and Care Committee arid animals were maintained in accordance to guidelines of the American Association of Laboratory Animal Care. Tumors were propagated to subsequent cohorts of mice until a sufficient number were available for drug testing.
# Fine needle aspiration (FNA): FNAs on mice were performed according to standard cytopathologic practice using 10 cc syringes and 25-gauge needles. The procedure was performed under inhaled general anesthesia with isofluorane. During each FNA procedure the first pass was smeared onto glass slides and used for morphologic analysis and quality control, (DiffQuik™ and Papanicoloau), and the second through sixth passes were used to acquire viable cells.
# Ex vivo assay: FNA passes used to acquire viable cells were immediately transferred into 10 ml sterile prewarmed complete RPMI-1640 culture medium containing 10% FBS, penicillin (200 ug/ml), and streptomycin (200 ug/ml). Equivalent aliquots of cells were seeded in two wells of a 6-well polypropylene microplate. […] Following treatment, non-adherent and adherent cells (collected by scraping) were pooled together in a 1.5 mL microcentrifuge tube and centrifuged at 500 g for 5 mm at 4° C. After washing with PBS, cells were lysed in 100 μL of ice-cold RLT.
# RNA extraction and cDNA generation: Total RNA was extracted from cells using the RNeasy™ Mini Kit (Qiagen, Valencia, Calif.) following the manufacturer's instructions. cDNA was synthesized using iScript cDNA synthesis kit (Bio-Rad) following the manufacturer's instructions.
# Low-density micro arrays (LDMA): The samples were run in a customized assay with a 384-well format (ABI, Foster City, Calif.), where the expression of 45 to 381 relevant genes can be quantitatively tested. For this example, the array was designed with 8 replicated sections containing 48 wells, with primers of one gene per well: 3 housekeeping genes (HK: UBC, HPRT, SDHA), and 45 genes of interest. 50 μL of cDNA plus 50 μL of ABI mastermix were loaded onto each of two contiguous lanes to have duplicated readouts of every sample, and were run by real-time reverse transcriptase PCR (RT-PCR). The amount of change in the target genes was calculated by comparing the threshold cycle (CT) of each gene to the geometric mean of the CTs of the HK genes. Relative expression of the target genes was estimated using the formula: relative expression=2−^ΔCT, where ΔCT=CT (target gene)−CT (average of the 3 HK genes). The experiment was run in duplicate and mean values are analyzed.
# Data analysis: The expression level of each gene in the treated sample was normalized to that of the untreated control. A significant change was defined when the gene expression either increases two-fold or more (>200%), or decreases to half or more (<50%). The rest is considered uninformative.
smiles,measurement,setting,value
Nc1ccn([C@@H]2O[C@H](CO)[C@@H](O)C2(F)F)c(=O)n1 [gemcitabine],AXIN2 gene expression,case #1,67
same,BAX gene expression,case #1,91
same,BNIP3L gene expression,case #1,109
same,BRAF gene expression,case #1,116
same,BRCA1 gene expression,case #1,81
same,CCND1 gene expression,case #1,127
same,CXCR4 gene expression,case #1,100
same,CyclinB1 gene expression,case #1,68
same,DCK gene expression,case #1,164
same,EGFR gene expression,case #1,124
same,ERCC1 gene expression,case #1,107
same,FOS gene expression,case #1,113
same,GADD45A gene expression,case #1,108
same,GLI2 gene expression,case #1,72
same,HIF1A gene expression,case #1,126
same,HIF1B gene expression,case #1,99
same,IGF1R gene expression,case #1,51
same,IGFBP3 gene expression,case #1,135
same,IHH gene expression,case #1,113
same,MAP2K2 gene expression,case #1,127
same,MAPK3 gene expression,case #1,152
same,MDM2 gene expression,case #1,134
same,MSLN gene expression,case #1,101
same,NOTCH1 gene expression,case #1,158
same,NOTCH2 gene expression,case #1,113
same,PLK1 gene expression,case #1,50
same,PSCA gene expression,case #1,106
same,PTCH gene expression,case #1,81
same,SHH gene expression,case #1,70
same,Survivin gene expression,case #1,81
same,TGFA gene expression,case #1,99
same,VEGF gene expression,case #1,106
same,VHL gene expression,case #1,104
same,p21 gene expression,case #1,96
same,AXIN2 gene expression,case #2,63
same,BAX gene expression,case #2,95
same,BNIP3L gene expression,case #2,96
same,BRAF gene expression,case #2,98
same,BRCA1 gene expression,case #2,63
same,CCND1 gene expression,case #2,128
same,CXCR4 gene expression,case #2,5
same,CyclinB1 gene expression,case #2,99
same,DCK gene expression,case #2,112
same,EGFR gene expression,case #2,101
same,ERCC1 gene expression,case #2,78
same,FOS gene expression,case #2,115
same,GADD45A gene expression,case #2,108
same,GLI2 gene expression,case #2,82
same,HIF1A gene expression,case #2,111
same,HIF1B gene expression,case #2,129
same,IGF1R gene expression,case #2,105
same,IGFBP3 gene expression,case #2,205
same,IHH gene expression,case #2,131
same,MAP2K2 gene expression,case #2,78
same,MAPK1 gene expression,case #2,104
same,MAPK3 gene expression,case #2,71
same,MDM2 gene expression,case #2,92
same,MSLN gene expression,case #2,118
same,NFKB1 gene expression,case #2,138
same,NOTCH1 gene expression,case #2,138
same,NOTCH2 gene expression,case #2,119
same,PLK1 gene expression,case #2,34
same,PSCA gene expression,case #2,127
same,PTCH gene expression,case #2,102
same,RRM1 gene expression,case #2,166
same,SHH gene expression,case #2,108
same,Survivin gene expression,case #2,110
same,TGFA gene expression,case #2,113
same,VEGF gene expression,case #2,101
same,VHL gene expression,case #2,116
same,p21 gene expression,case #2,110
same,AXIN2 gene expression,case #3,44
same,BAX gene expression,case #3,78
same,BNIP3L gene expression,case #3,82
same,BRAF gene expression,case #3,93
same,BRCA1 gene expression,case #3,84
same,CCND1 gene expression,case #3,106
same,CXCR4 gene expression,case #3,43
same,CyclinB1 gene expression,case #3,48
same,DCK gene expression,case #3,80
same,EGFR gene expression,case #3,70
same,ERCC1 gene expression,case #3,88
same,FOS gene expression,case #3,123
same,GADD45A gene expression,case #3,104
same,GLI2 gene expression,case #3,73
same,HIF1A gene expression,case #3,106
same,HIF1B gene expression,case #3,106
same,IGF1R gene expression,case #3,66
same,IGFBP3 gene expression,case #3,49
same,IHH gene expression,case #3,130
same,MAP2K2 gene expression,case #3,106
same,MAPK3 gene expression,case #3,109
same,MDM2 gene expression,case #3,137
same,MSLN gene expression,case #3,91
same,NFKB1 gene expression,case #3,94
same,NOTCH1 gene expression,case #3,132
same,NOTCH2 gene expression,case #3,103
same,PLK1 gene expression,case #3,36
same,PSCA gene expression,case #3,115
same,PTCH gene expression,case #3,53
same,RRM1 gene expression,case #3,81
same,SHH gene expression,case #3,65
same,Survivin gene expression,case #3,58
same,TGFA gene expression,case #3,92
same,VEGF gene expression,case #3,86
same,VHL gene expression,case #3,118
same,p21 gene expression,case #3,99
same,AXIN2 gene expression,case #4,142
same,BAX gene expression,case #4,100
same,BNIP3L gene expression,case #4,115
same,BRAF gene expression,case #4,175
same,BRCA1 gene expression,case #4,343
same,CCND1 gene expression,case #4,171
same,CXCR4 gene expression,case #4,13
same,CyclinB1 gene expression,case #4,124
same,DCK gene expression,case #4,176
same,EGFR gene expression,case #4,54
same,ERCC1 gene expression,case #4,94
same,FOS gene expression,case #4,108
same,GADD45A gene expression,case #4,78
same,GLI2 gene expression,case #4,11
same,HIF1A gene expression,case #4,146
same,HIF1B gene expression,case #4,56
same,IGF1R gene expression,case #4,41
same,IGFBP3 gene expression,case #4,130
same,IHH gene expression,case #4,92
same,JUN gene expression,case #4,83
same,MAP2K2 gene expression,case #4,146
same,MAPK1 gene expression,case #4,68
same,MAPK3 gene expression,case #4,108
same,MDM2 gene expression,case #4,43
same,MSLN gene expression,case #4,89
same,NFKB1 gene expression,case #4,104
same,NOTCH1 gene expression,case #4,134
same,NOTCH2 gene expression,case #4,92
same,PLK1 gene expression,case #4,15
same,PSCA gene expression,case #4,81
same,PTCH gene expression,case #4,93
same,RRM1 gene expression,case #4,79
same,SHH gene expression,case #4,91
same,Survivin gene expression,case #4,166
same,TGFA gene expression,case #4,85
same,VEGF gene expression,case #4,103
same,VHL gene expression,case #4,127
same,p21 gene expression,case #4,102
same,AXIN2 gene expression,case #5,210
same,BAX gene expression,case #5,109
same,BNIP3L gene expression,case #5,90
same,BRAF gene expression,case #5,146
same,BRCA1 gene expression,case #5,95
same,CCND1 gene expression,case #5,141
same,CXCR4 gene expression,case #5,229
same,CyclinB1 gene expression,case #5,53
same,DCK gene expression,case #5,132
same,EGFR gene expression,case #5,71
same,ERCC1 gene expression,case #5,105
same,FOS gene expression,case #5,112
same,GADD45A gene expression,case #5,121
same,GLI2 gene expression,case #5,118
same,HIF1A gene expression,case #5,108
same,HIF1B gene expression,case #5,65
same,IGF1R gene expression,case #5,61
same,IGFBP3 gene expression,case #5,122
same,IHH gene expression,case #5,141
same,JUN gene expression,case #5,135
same,MAP2K2 gene expression,case #5,151
same,MAPK1 gene expression,case #5,86
same,MAPK3 gene expression,case #5,95
same,MDM2 gene expression,case #5,73
same,MSLN gene expression,case #5,100
same,NFKB1 gene expression,case #5,163
same,NOTCH1 gene expression,case #5,89
same,NOTCH2 gene expression,case #5,56
same,PLK1 gene expression,case #5,21
same,PSCA gene expression,case #5,102
same,PTCH gene expression,case #5,48
same,RRM1 gene expression,case #5,92
same,SHH gene expression,case #5,113
same,Survivin gene expression,case #5,67
same,TGFA gene expression,case #5,97
same,VEGF gene expression,case #5,107
same,VHL gene expression,case #5,79
same,p21 gene expression,case #5,143
